In publication PMC12300041, “Tricyclic Isatin Derivatives as Anti-Inflammatory Compounds with High Kinase Binding Affinity” (Molecules, 2025):

Key:
Assay in all cases: KINOMEscan
Type in all cases: binding
FLT3 (D835H) = target: T1, FLT3 (D835H) (Homo sapiens, UniProt P36888, D835H)
T1 construct: purchased Eurofins DiscoverX KINOMEscan
How it was run: (§1)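 Binding reactions proceed for 1 h at room temperature. Kinase not bound by compound is captured on immobilized affinity ligand and quantified by qPCR; Kd is fitted over 12 half-log concentrations, top 33 μM.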

TLK1 = target: T2, TLK1 (Homo sapiens, UniProt Q9UKI8)
T2 construct: purchased Eurofins DiscoverX KINOMEscan
How it was run: as §1

MLK1 = target: T3, MLK1 (Homo sapiens, UniProt P80192)
T3 construct: purchased Eurofins DiscoverX KINOMEscan
How it was run: as §1

CLK4 = target: T4, CLK4 (Homo sapiens, UniProt Q9HAZ1)
T4 construct: purchased Eurofins DiscoverX KINOMEscan
How it was run: (§2)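 Read-out is qPCR of kinase not bound to the test compound, recovered by capture on an immobilized affinity ligand after a 1 h room-temperature binding step. Dissociation constants came from 12 half-log dilutions starting at 33 μM.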

p38-β = target: T5, p38-β (Homo sapiens, UniProt Q15759)
T5 construct: purchased Eurofins DiscoverX KINOMEscan
How it was run: as §1

DYRK2 = target: T6, DYRK2 (Homo sapiens, UniProt Q92630)
T6 construct: purchased Eurofins DiscoverX KINOMEscan
How it was run: as §1

AKT2 = target: T7, AKT2 (Homo sapiens, UniProt P31751)
T7 construct: purchased Eurofins DiscoverX KINOMEscan
How it was run: as §1

WNK3 = target: T8, WNK3 (Homo sapiens, UniProt Q9BYP7)
T8 construct: purchased Eurofins DiscoverX KINOMEscan
T8 sequence (Q9BYP7 whole entry): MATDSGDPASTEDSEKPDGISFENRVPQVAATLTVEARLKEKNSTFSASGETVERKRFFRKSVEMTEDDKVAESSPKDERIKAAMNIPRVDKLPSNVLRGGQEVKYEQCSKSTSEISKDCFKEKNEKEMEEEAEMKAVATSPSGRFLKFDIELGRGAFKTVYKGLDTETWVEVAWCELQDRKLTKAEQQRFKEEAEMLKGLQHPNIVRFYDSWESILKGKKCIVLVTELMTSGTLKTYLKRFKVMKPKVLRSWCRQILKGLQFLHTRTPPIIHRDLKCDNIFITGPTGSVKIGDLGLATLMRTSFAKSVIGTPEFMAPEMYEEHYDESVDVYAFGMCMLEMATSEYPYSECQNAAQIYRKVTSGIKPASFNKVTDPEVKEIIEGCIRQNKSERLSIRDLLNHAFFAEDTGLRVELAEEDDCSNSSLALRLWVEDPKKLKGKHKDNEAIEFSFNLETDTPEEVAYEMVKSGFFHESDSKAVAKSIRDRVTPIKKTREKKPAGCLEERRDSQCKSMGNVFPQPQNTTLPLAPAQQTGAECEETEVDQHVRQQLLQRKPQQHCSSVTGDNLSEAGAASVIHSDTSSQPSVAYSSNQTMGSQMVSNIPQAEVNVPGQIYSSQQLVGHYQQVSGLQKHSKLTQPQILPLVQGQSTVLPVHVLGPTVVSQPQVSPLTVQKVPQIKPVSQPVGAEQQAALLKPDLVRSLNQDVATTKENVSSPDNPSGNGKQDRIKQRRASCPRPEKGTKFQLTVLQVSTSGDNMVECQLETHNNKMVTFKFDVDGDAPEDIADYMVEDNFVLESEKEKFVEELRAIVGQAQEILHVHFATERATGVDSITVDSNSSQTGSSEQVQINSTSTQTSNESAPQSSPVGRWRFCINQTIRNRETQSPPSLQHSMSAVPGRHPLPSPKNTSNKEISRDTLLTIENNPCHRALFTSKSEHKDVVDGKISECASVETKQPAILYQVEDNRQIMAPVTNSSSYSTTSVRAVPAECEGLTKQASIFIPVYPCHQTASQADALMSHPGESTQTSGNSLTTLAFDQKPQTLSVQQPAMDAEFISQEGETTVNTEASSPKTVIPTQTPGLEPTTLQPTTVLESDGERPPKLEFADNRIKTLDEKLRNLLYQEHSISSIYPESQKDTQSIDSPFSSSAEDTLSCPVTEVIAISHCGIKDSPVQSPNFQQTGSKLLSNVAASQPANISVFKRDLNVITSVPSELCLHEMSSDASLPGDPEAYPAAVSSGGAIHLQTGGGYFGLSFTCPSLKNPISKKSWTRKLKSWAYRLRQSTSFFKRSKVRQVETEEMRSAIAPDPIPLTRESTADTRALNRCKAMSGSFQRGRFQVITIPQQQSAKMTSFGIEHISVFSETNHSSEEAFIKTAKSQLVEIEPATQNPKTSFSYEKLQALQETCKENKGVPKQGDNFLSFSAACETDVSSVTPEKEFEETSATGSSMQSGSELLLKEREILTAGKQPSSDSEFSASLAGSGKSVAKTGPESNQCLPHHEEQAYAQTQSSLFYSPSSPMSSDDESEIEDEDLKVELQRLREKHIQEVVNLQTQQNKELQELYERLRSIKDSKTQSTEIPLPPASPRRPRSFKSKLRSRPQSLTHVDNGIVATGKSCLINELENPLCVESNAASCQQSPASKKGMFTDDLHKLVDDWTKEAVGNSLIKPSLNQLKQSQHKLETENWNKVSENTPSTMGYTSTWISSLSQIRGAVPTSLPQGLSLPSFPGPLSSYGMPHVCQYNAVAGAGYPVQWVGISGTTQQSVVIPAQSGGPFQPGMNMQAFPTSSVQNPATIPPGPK
How it was run: as §1

JAK3 (JH1domain-cat.) = target: T9, JAK3 (JH1domain-cat.) (Homo sapiens, UniProt P52333)
T9 construct: JAK3 (JH1domain-cat.); purchased Eurofins DiscoverX KINOMEscan
How it was run: as §1

NEK2 = target: T10, NEK2 (Homo sapiens, UniProt P51955)
T10 construct: purchased Eurofins DiscoverX KINOMEscan
How it was run: as §1

ROS1 = target: T11, ROS1 (Homo sapiens, UniProt P08922)
T11 construct: purchased Eurofins DiscoverX KINOMEscan
How it was run: as §1

PHKG1 = target: T12, PHKG1 (Homo sapiens, UniProt Q16816)
T12 construct: purchased Eurofins DiscoverX KINOMEscan
How it was run: as §2

TBK1 = target: T13, TBK1 (Homo sapiens, UniProt Q9UHD2)
T13 construct: purchased Eurofins DiscoverX KINOMEscan
How it was run: as §1

GRK2 = target: T14, GRK2 (Homo sapiens, UniProt P25098)
T14 construct: purchased Eurofins DiscoverX KINOMEscan
How it was run: as §1

[1] = target: T15, RPS6KA5 (Kin. Dom.2-C-term.) (Homo sapiens, UniProt O75582)
T15 construct: RPS6KA5 (Kin. Dom.2-C-term.); purchased Eurofins DiscoverX KINOMEscan
How it was run: as §2

KIT (D816H) = target: T16, KIT (D816H) (Homo sapiens, UniProt P10721, D816H)
T16 construct: purchased Eurofins DiscoverX KINOMEscan
T16 sequence (P10721 26-976 D816H): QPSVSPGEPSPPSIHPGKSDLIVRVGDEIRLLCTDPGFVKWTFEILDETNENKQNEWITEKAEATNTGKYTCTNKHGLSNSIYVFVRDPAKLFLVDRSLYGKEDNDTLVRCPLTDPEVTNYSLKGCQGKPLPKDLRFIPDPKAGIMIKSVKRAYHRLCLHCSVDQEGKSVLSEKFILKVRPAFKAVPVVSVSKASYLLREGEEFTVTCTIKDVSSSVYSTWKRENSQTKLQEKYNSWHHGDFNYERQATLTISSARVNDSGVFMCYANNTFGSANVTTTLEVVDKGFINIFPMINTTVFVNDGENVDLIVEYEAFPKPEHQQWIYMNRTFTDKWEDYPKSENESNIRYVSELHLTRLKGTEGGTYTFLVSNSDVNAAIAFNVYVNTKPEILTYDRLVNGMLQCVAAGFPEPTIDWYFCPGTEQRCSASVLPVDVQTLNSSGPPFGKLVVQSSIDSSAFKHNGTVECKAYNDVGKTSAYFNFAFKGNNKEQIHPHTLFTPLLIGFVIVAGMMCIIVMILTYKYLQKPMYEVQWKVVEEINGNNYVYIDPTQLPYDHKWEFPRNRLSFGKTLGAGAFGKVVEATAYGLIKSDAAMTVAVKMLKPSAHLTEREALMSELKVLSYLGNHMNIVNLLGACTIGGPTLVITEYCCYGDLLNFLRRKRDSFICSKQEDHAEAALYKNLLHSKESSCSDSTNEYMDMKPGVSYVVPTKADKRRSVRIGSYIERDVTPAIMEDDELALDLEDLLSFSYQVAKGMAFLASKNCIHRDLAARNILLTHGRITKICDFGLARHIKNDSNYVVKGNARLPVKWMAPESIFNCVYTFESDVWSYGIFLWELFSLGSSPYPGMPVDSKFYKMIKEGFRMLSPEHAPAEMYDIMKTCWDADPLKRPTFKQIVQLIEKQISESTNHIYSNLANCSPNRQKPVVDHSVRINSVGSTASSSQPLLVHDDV
How it was run: as §1

ABL1 (F317I)-P = target: T17, ABL1 (F317I)-P (Homo sapiens, UniProt P00519, F317I)
T17 construct: purchased Eurofins DiscoverX KINOMEscan
T17 sequence (P00519 whole entry F317I): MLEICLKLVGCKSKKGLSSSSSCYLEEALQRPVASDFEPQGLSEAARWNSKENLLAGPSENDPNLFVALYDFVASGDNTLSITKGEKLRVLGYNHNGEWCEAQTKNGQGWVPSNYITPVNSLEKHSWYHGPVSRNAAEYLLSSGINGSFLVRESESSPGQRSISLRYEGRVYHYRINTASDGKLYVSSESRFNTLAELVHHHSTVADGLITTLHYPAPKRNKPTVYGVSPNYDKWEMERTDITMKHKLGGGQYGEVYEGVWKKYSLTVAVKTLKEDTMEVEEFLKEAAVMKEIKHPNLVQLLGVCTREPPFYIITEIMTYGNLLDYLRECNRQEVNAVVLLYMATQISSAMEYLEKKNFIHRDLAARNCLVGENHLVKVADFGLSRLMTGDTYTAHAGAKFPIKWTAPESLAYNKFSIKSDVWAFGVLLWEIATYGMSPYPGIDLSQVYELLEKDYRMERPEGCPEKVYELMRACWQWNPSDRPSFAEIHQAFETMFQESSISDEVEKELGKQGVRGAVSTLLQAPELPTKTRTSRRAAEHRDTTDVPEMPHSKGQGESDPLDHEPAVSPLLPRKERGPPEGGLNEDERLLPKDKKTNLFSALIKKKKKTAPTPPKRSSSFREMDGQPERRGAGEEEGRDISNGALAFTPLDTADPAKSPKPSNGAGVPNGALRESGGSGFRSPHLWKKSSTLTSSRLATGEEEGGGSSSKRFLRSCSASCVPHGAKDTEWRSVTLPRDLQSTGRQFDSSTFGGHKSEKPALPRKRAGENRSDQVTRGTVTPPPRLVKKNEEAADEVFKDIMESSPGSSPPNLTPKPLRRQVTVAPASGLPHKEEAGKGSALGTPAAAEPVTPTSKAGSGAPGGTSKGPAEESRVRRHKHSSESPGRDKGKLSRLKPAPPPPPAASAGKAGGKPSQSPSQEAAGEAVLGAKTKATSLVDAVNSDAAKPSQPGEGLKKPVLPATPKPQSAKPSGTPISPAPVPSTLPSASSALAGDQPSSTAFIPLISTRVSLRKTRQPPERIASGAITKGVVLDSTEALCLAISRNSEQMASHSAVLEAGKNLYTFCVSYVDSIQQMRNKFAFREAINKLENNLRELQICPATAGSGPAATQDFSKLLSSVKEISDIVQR
How it was run: as §1

EGFR (L858R) = target: T18, EGFR (L858R) (Homo sapiens, UniProt P00533, L858R)
T18 construct: purchased Eurofins DiscoverX KINOMEscan
How it was run: as §2

TIE2 = target: T19, TIE2 (Homo sapiens, UniProt Q02763)
T19 construct: purchased Eurofins DiscoverX KINOMEscan
How it was run: as §1

AAK1 = target: T20, AAK1 (Homo sapiens, UniProt Q2M2I8)
T20 construct: purchased Eurofins DiscoverX KINOMEscan
How it was run: as §1

NLK = target: T21, NLK (Homo sapiens, UniProt Q9UBE8)
T21 construct: purchased Eurofins DiscoverX KINOMEscan
How it was run: as §2

ACVR1 = target: T22, ACVR1 (Homo sapiens, UniProt Q04771)
T22 construct: purchased Eurofins DiscoverX KINOMEscan
How it was run: as §1

PRKD1 = target: T23, PRKD1 (Homo sapiens, UniProt Q15139)
T23 construct: purchased Eurofins DiscoverX KINOMEscan
How it was run: as §1

MKK7 = target: T24, MKK7 (Homo sapiens, UniProt O14733)
T24 construct: purchased Eurofins DiscoverX KINOMEscan
T24 sequence (O14733 whole entry): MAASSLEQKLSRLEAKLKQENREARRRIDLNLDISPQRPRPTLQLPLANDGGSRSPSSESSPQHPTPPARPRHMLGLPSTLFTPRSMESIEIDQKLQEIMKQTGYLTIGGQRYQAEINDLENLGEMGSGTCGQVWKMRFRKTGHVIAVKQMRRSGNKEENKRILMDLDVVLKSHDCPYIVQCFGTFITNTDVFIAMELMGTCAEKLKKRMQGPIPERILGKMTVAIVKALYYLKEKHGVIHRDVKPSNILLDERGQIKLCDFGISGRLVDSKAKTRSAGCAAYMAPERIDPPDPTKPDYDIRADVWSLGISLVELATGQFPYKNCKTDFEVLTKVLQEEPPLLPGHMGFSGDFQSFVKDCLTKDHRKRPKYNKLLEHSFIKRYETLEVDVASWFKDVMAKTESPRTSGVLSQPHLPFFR
How it was run: as §1

ERBB2 = target: T25, ERBB2 (Homo sapiens, UniProt P04626)
T25 construct: purchased Eurofins DiscoverX KINOMEscan
How it was run: as §1

JNK1 = target: T26, JNK1 (Homo sapiens, UniProt P45983)
T26 construct: purchased Eurofins DiscoverX KINOMEscan
How it was run: as §2

IKK-ε = target: T27, IKK-ε (Homo sapiens, UniProt Q14164)
T27 construct: purchased Eurofins DiscoverX KINOMEscan
How it was run: as §2

EPHB3 = target: T28, EPHB3 (Homo sapiens, UniProt P54753)
T28 construct: purchased Eurofins DiscoverX KINOMEscan
How it was run: as §1

NEK9 = target: T29, NEK9 (Homo sapiens, UniProt Q8TD19)
T29 construct: purchased Eurofins DiscoverX KINOMEscan
How it was run: as §1

PRP4 = target: T30, PRP4 (Homo sapiens, UniProt Q13523)
T30 construct: purchased Eurofins DiscoverX KINOMEscan
How it was run: as §2

ERK1 = target: T31, ERK1 (Homo sapiens, UniProt P27361)
T31 construct: purchased Eurofins DiscoverX KINOMEscan
How it was run: as §1

TYK2 (JH1 domain-cat.) = target: T32, TYK2 (JH1 domain-cat.) (Homo sapiens, UniProt P29597)
T32 construct: TYK2 (JH1 domain-cat.); purchased Eurofins DiscoverX KINOMEscan
How it was run: as §1

CDK2 = target: T33, CDK2 (Homo sapiens, UniProt P24941)
T33 construct: purchased Eurofins DiscoverX KINOMEscan
How it was run: as §1

[2] = target: T34, RSK2 (Kin. Dom.1-N-term.) (Homo sapiens, UniProt P51812)
T34 construct: RSK2 (Kin. Dom.1-N-term.); purchased Eurofins DiscoverX KINOMEscan
How it was run: as §1

TESK1 = target: T35, TESK1 (Homo sapiens, UniProt Q15569)
T35 construct: purchased Eurofins DiscoverX KINOMEscan
How it was run: as §2

RIOK3 = target: T36, RIOK3 (Homo sapiens, UniProt O14730)
T36 construct: purchased Eurofins DiscoverX KINOMEscan
How it was run: as §2

MELK = target: T37, MELK (Homo sapiens, UniProt Q14680)
T37 construct: purchased Eurofins DiscoverX KINOMEscan
T37 sequence (Q14680 whole entry): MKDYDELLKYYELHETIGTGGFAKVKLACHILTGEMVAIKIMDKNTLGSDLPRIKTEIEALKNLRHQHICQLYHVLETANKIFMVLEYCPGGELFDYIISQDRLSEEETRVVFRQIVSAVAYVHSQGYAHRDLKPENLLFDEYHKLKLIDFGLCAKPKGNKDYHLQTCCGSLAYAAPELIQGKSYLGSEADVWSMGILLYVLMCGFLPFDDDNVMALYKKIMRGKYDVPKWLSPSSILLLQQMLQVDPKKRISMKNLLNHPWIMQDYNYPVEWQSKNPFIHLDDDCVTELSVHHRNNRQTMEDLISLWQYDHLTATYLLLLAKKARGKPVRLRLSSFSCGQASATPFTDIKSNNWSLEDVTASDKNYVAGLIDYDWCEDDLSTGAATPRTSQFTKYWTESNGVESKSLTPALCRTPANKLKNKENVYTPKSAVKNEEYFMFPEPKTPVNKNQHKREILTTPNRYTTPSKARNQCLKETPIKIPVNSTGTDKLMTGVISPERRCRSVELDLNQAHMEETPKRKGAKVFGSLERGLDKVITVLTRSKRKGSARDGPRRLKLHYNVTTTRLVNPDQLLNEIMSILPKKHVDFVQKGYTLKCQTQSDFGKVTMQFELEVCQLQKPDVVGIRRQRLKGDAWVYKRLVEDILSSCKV
How it was run: as §1

O=C1Nc2c(cc([N+](=O)[O-])c3c2CCCC3)C1=NO [Compound 5d, 3-(Hydroxyimino)-5-nitro-1,3,6,7,8,9-hexahydro-2H-benzo[g]indol-2-one]
inhibition at 10 µM (FLT3 (D835H)): 35%
inhibition at 10 µM (TLK1): 19%
inhibition at 10 µM (MLK1): 18%
inhibition at 10 µM (CLK4): 93.9%
inhibition at 10 µM (p38-β): 15%
inhibition at 10 µM (DYRK2): 81%
inhibition at 10 µM (AKT2): 0%
inhibition at 10 µM (WNK3): 28%
inhibition at 10 µM (JAK3 (JH1domain-cat.)): 49%
inhibition at 10 µM (NEK2): 16%
inhibition at 10 µM (ROS1): 67%
inhibition at 10 µM (PHKG1): 0%
inhibition at 10 µM (TBK1): 46%
inhibition at 10 µM (GRK2): 48%
inhibition at 10 µM [1]: 89.4%
inhibition at 10 µM (KIT (D816H)): 1%
inhibition at 10 µM (ABL1 (F317I)-P; first of two lines printed ABL1 (F317I)-P): 7%
inhibition at 10 µM (ABL1 (F317I)-P; second of two lines printed ABL1 (F317I)-P): 0%
inhibition at 10 µM (EGFR (L858R)): 17%
inhibition at 10 µM (TIE2): 21%
inhibition at 10 µM (AAK1): 91.8%
inhibition at 10 µM (NLK): 11%
inhibition at 10 µM (ACVR1): 2%
inhibition at 10 µM (PRKD1): 61%
inhibition at 10 µM (MKK7): 0%
Inhib. (%) (MKK7; 10 μM): inactive
inhibition at 10 µM (ERBB2): 29%
inhibition at 10 µM (JNK1): 76%
inhibition at 10 µM (IKK-ε): 23%
inhibition at 10 µM (EPHB3): 0%
inhibition at 10 µM (NEK9): 32%
inhibition at 10 µM (PRP4): 38%
inhibition at 10 µM (ERK1): 0%
inhibition at 10 µM (TYK2 (JH1 domain-cat.)): 90%
inhibition at 10 µM (CDK2): 9%
inhibition at 10 µM [2]: 81%
inhibition at 10 µM (TESK1): 9%
inhibition at 10 µM (RIOK3): 19%
inhibition at 10 µM (MELK): 56%
